Measurements taken from paper PMC9143003, “Neutrophil Immunomodulatory Activity of Farnesene, a Component of Artemisia dracunculus Essential Oils” (Pharmaceuticals, 2022).
Like-named read-outs stand apart in the source and are kept apart here.

Assays:
[1] = system: human THP-1 monocytic cells; test: Cytotoxicity assay (CellTiter-Glo), THP-1; format: cell-based
Method: Human THP-1 monocytic cells obtained from ATCC (Manassas, VA, USA) were cultured in RPMI 1640 medium (Mediatech Inc., Herndon, VA, USA) supplemented with 10% (v/v) FBS, 100 μg/mL streptomycin, and 100 U/mL penicillin. […] After incubation, we added substrate.

[2] = system: IL-8-stimulated human neutrophils; test: Inhibition of IL-8-induced [Ca2+]i; format: cell-based; settings: 10 min pretreatment, 25 nM human IL-8; read-out: Inhibition of IL-8 induced neutrophil [Ca^2+]i IC50
Source text: (§1) We obtained human neutrophils using blood collected from healthy donors. Blood collection was approved by the Institutional Review Board at Montana State University (Protocol #MQ041017). Neutrophils were isolated as described previously. The isolated neutrophils were resuspended in HBSS^–. Neutrophil preparations were routinely >95% pure and >98% viable, as determined by light microscopy and trypan blue exclusion, respectively.
Changes in intracellular Ca^2+ concentrations ([Ca^2+]i) were monitored with a FlexStation 3 (Molecular Devices, Sunnyvale, CA, USA). For these assays, neutrophils were loaded with 1.25 μg/mL Fluo-4AM and incubated in the dark at 37 °C for 30 min. The cells were then washed with HBSS^-. The dye-loaded cells were resuspended in HBSS^+ and pipetted into the wells of black microtiter plates at 2 × 10^5 cells/well. To measure the direct effects of samples on [Ca^2+]i, the test samples were added to the wells (final concentration of DMSO was 1%), and fluorescence was monitored (λex = 485 nm, λem = 538 nm). Changes in fluorescence were monitored every 5 s at room temperature for 240 s. To evaluate the inhibitory effects of the test samples, the samples were added to the wells and incubated for 10 min, with the subsequent addition of 5 nM fMLF, 5 nM WKYMVM, or 25 nM IL-8. […]

human neutrophils [3] = test: Chemotaxis assay toward fMLF (ChemoTx chambers); format: cell-based; settings: pure compounds, 30 min pretreatment, 1 nM fMLF; for IC50: read-out: Inhibition of fMLF-induced neutrophil chemotaxis IC50
Source text: as §1
To evaluate effects of samples on neutrophil migration, we resuspended neutrophils in HBSS^+ containing 2% (v/v) heat-inactivated FBS (2 × 10^6 cells/mL). We analyzed chemotaxis using 96-well ChemoTx chambers (Neuroprobe, Gaithersburg, MD). The neutrophils were first preincubated with the indicated concentrations of test samples at room temperature for 30 min. The pretreated cells were then pipetted into the chamber upper wells (4 × 10^4 cells/well). The lower wells contained 30 µL of HBSS^+ with 2% (v/v) heat-inactivated FBS, the indicated test samples or control 1% DMSO, and 1 nM fMLF as the chemoattractant. Three lower wells were reserved for background controls (DMSO treated cells in the upper wells and DMSO without fMLF in the lower wells). We allowed the cells to migrate through the polycarbonate membrane filter for 60 min at 37 °C/5% CO2. We determined the number of migrated cells by measuring ATP in lysates of transmigrated cells and comparing this to a standard curve obtained with known neutrophil numbers, as described previously. Calculation of median effective concentrations (IC50) was performed by nonlinear regression analysis of the dose-response curves.

[4] = system: fMLF-stimulated human neutrophils (FPR1 agonist fMLF); test: Inhibition of fMLF-induced [Ca2+]i; format: cell-based; settings: pure compounds, 10 min pretreatment, 5 nM fMLF, read-out: Inhibition of [Ca^2+]i fMLF-Induced IC50
Source text: as §1
(§2) Changes in intracellular Ca^2+ concentrations ([Ca^2+]i) were monitored with a FlexStation 3 (Molecular Devices, Sunnyvale, CA, USA). For these assays, neutrophils were loaded with 1.25 μg/mL Fluo-4AM and incubated in the dark at 37 °C for 30 min. The cells were then washed with HBSS^-. The dye-loaded cells were resuspended in HBSS^+ and pipetted into the wells of black microtiter plates at 2 × 10^5 cells/well. To measure the direct effects of samples on [Ca^2+]i, the test samples were added to the wells (final concentration of DMSO was 1%), and fluorescence was monitored (λex = 485 nm, λem = 538 nm). Changes in fluorescence were monitored every 5 s at room temperature for 240 s. To evaluate the inhibitory effects of the test samples, the samples were added to the wells and incubated for 10 min, with the subsequent addition of 5 nM fMLF, 5 nM WKYMVM, or 25 nM IL-8. Responses were normalized to the response induced by control 5 nM fMLF, 5 nM WKYMVM, or 25 nM IL-8 alone without pretreatment. These responses were assigned as 100%. To calculate median effective concentrations (EC50 or IC50), we used curve fitting (at least five or six points) and nonlinear regression analysis of the dose–response curves. Curve fitting was performed with Prism 9 (GraphPad Software, Inc., San Diego, CA, USA).

human neutrophils [5] = test: Ca2+ mobilization assay, direct activation of [Ca2+]i; format: cell-based; settings: pure compounds; for Effect on human neutrophil Ca^2+ flux (in words): direct effect; for EC50: human neutrophils, mean ± SD of three experiments, read-out: Activation of [Ca^2+]i EC50
Source text: as §1, §2

[6] = system: WKYMVM-stimulated human neutrophils (FPR2 agonist WKYMVM); test: Inhibition of WKYMVM-induced [Ca2+]i; format: cell-based; settings: pure compounds, 10 min pretreatment, 5 nM WKYMVM, read-out: Inhibition of [Ca^2+]i WKYMVM-Induced IC50
Source text: as §1, §2

human neutrophils [7] = test: Cytotoxicity assay (CellTiter-Glo), neutrophils; settings: pure compounds, 90 min incubation, no cytotoxicity = IC50 > 55 µM
Method: We analyze cytotoxicity in human neutrophils or THP-1 monocytic cells. Cytotoxicity was analyzed using a CellTiter-Glo Luminescent Cell Viability Assay Kit (Promega, Madison, WI, USA). Briefly, the cells were incubated (10^4 cells/well) with the indicated concentrations of essential oil or compound for 90 min (for neutrophils) or 24 h (for THP-1 cells) at 37 °C/5% CO2. After incubation, we added substrate. The samples were analyzed using a Fluoroscan Ascent FL microplate reader.

human neutrophils [8] = system: human neutrophils; set-up: method as in PMID 27586050, PMID 25959257; settings: previous analysis; cited from earlier work
FPR1 = system: FPR1; set-up: method as in PMID 16972170, PMID 11211928, PMID 11853704; settings: cited from earlier work

Compound: Farnesene
- Viability of human THP-1 monocytic cells [1]: did not affect the viability
- IC50 [2]: 2.6 µM
- IC50 (human neutrophils [3]): 3.3 ± 1.4 µM
- IC50 [4]: 1.1 ± 0.2 µM
- Effect on human neutrophil Ca^2+ flux (in words) (human neutrophils [5]): weak activators
- EC50 (human neutrophils [5]): 28.5 ± 2.6 µM
- IC50 [6]: 1.4 ± 0.5 µM

Compound: CC1=CC(=O)C(C(C)C)CC1 (centres unmarked) [Piperitone]
- Cytotoxicity (human neutrophils [7]): Nontoxic
- IC50 ([4]; Homo sapiens, Neutrophil): > 55 µM
- EC50 (human neutrophils [5]; Neutrophil): > 55 µM
- Effect on human neutrophil Ca^2+ flux (in words) (human neutrophils [5]): did not affect human neutrophil Ca^2+ flux
- IC50 ([6]; Homo sapiens, Neutrophil): > 55 µM

Compound: (±)-Bornyl acetate
- Viability of human THP-1 monocytic cells [1]: did not affect the viability
- IC50 (human neutrophils [3]): 11.9 ± 1.9 µM
- IC50 [4]: 42.6 ± 9.7 µM
- Effect on human neutrophil Ca^2+ flux (in words) (human neutrophils [5]): weak activators
- EC50 (human neutrophils [5]): 50.1 ± 11.5 µM
- IC50 [6]: 19.1 ± 0.1 µM

Compound: Cc1ccc(C(C)C)cc1 [p-cymene]
- Effect on human neutrophil [Ca^2+]i (in words) (human neutrophils [8]): no effect

Compound: CC12CCC(CC1)C(C)(C)O2 [1,8-Cineole]
- Cytotoxicity (human neutrophils [7]): Nontoxic
- IC50 ([4]; Homo sapiens, Neutrophil): > 55 µM
- EC50 (human neutrophils [5]; Neutrophil): > 55 µM
- Effect on human neutrophil Ca^2+ flux (in words) (human neutrophils [5]): did not affect human neutrophil Ca^2+ flux
- IC50 ([6]; Homo sapiens, Neutrophil): > 55 µM

Compound: C=CCc1ccc(OC)c(OC)c1 [methyl eugenol]
- Effect on human neutrophil [Ca^2+]i (in words) (human neutrophils [8]): no effect

Compound: C=CCc1ccc(OC)cc1 [methyl chavicol]
- Effect on human neutrophil [Ca^2+]i (in words) (human neutrophils [8]): no effect

Compound: CC12CCC(CC1=O)C2(C)C (stereo not drawn) [(+)-Camphor]
- IC50 [4]: > 55 µM
- Effect on human neutrophil Ca^2+ flux (in words) (human neutrophils [5]): did not affect human neutrophil Ca^2+ flux
- EC50 (human neutrophils [5]): > 55 µM
- IC50 [6]: > 55 µM

Compound: CC1=CCC(=C(C)C)CC1 [terpinolene]
- Effect on human neutrophil [Ca^2+]i (in words) (human neutrophils [8]): no effect

Compound: CC1=CCC(O)(C(C)C)CC1 (centres unmarked) [terpinen-4-ol]
- Effect on human neutrophil [Ca^2+]i (in words) (human neutrophils [8]): no effect

Compound: C[C@H](CCC(=O)O)[C@H]1CC[C@H]2[C@@H]3CC[C@@H]4C[C@H](O)CC[C@]4(C)[C@H]3C[C@H](O)[C@]12C [deoxycholic acid]
- Concentrations at which FPR1 is antagonized (FPR1): > 100 µM

Compound: CC1=CCC2CC1C2(C)C (stereo not drawn) [α-pinene]
- Effect on human neutrophil [Ca^2+]i (in words) (human neutrophils [8]): no effect

Compound: CC1(C)[C@H]2CC[C@]1(C)C(=O)C2 [(−)-Camphor]
- Cytotoxicity (human neutrophils [7]): Nontoxic
- IC50 ([4]; Homo sapiens, Neutrophil): > 55 µM
- EC50 (human neutrophils [5]; Neutrophil): > 55 µM
- Effect on human neutrophil Ca^2+ flux (in words) (human neutrophils [5]): did not affect human neutrophil Ca^2+ flux
- IC50 ([6]; Homo sapiens, Neutrophil): > 55 µM

Compound: Cc1ccc(C(C)(C)O)cc1 [p-cymen-8-ol]
- Effect on human neutrophil [Ca^2+]i (in words) (human neutrophils [8]): no effect

Compound: C=C1C2CCC(C2)C1(C)C (centres unmarked) [camphene]
- Effect on human neutrophil [Ca^2+]i (in words) (human neutrophils [8]): no effect

Compound: C=CC(C)(O)CCC=C(C)C (centres unmarked) [linalool]
- Effect on human neutrophil [Ca^2+]i (in words) (human neutrophils [8]): no effect

Compound: COc1cc(O)c(C(C)=O)c(OC)c1 [Xanthoxylin]
- Viability of human THP-1 monocytic cells ([1]; 24 h incubation): did not affect the viability
- Cytotoxicity (human neutrophils [7]): Nontoxic
- Inhibition of fMLF-induced neutrophil chemotaxis IC50 (human neutrophils [3]): did not affect this response
- IC50 ([4]; Homo sapiens, Neutrophil): 27.2 ± 6.6 µM
- EC50 (human neutrophils [5]; Neutrophil): 53.3 ± 5 µM
- Effect on human neutrophil Ca^2+ flux (in words) (human neutrophils [5]): weak activators
- IC50 ([6]; Homo sapiens, Neutrophil): 52.7 ± 11.2 µM

Compound: C[C@H](CCC(=O)O)[C@H]1CC[C@H]2[C@@H]3[C@H](O)C[C@@H]4C[C@H](O)CC[C@]4(C)[C@H]3CC[C@]12C [chenodeoxycholic acid]
- Concentrations at which FPR1 is antagonized (FPR1): > 100 µM
